Reference: US9993554B2 (CENTRO NACIONAL DE INVESTIGACIONES ONCOLOGICAS (CNIO), priority 2010, dated 2018)

Key:
[1] = target: T1, PI3K (p110α/p85α) (Homo sapiens, UniProt P42336); assay: PI3K activity assay (ADP Hunter Plus); format: biochemical; details: read-out: IC50, PI3K inhibition
T1 construct: purchased Carna Biosciences 07CBS-0402A
Experimental: The kinase activity was measured by using the commercial ADP Hunter™ Plus assay available from DiscoveRx (#33-016), which is a homogeneous assay to measure the accumulation of ADP, a universal product of kinase activity. […] Reaction was carried out for 1 hour at 25° C. Reagent A and B were sequentially added to the wells and plates were incubated for 30 min at 37° C. […] Values were normalized against the control activity included for each enzyme (i.e., 100% PI3 kinase activity, without compound). These values were plot against the inhibitor concentration and were fit to a sigmoid dose-response curve by using the Graphad software.

[2] = system: phospho-Ser-473-Akt; assay: AKT phosphorylation inhibition, Western blot cell assay; format: cell-based; details: Homo sapiens; read-out: IC50, cell assay (p-AKT Western Blot)
Experimental: The cell lines were obtained from the American Type Culture Collection (ATCC). U2OS (human osteosarcoma) was cultured in Dulbecco's modified Eagle's medium (DMEM). PC3 (human prostate carcinoma), MCF7 (human breast cardinoma), HCT116 (human colon carcinoma), 768-0 (human neuroblastoma), U251 (human glyoblastoma) were grown in RPMI. All media were supplemented with 10% fetal bovine serum (FBS) (Sigma) and antibiotics-antimycotics. Cell were maintained in a humidified incubator at 37° C. with 5% CO2 and passaged when confluent using trypsin/EDTA.
Subconfluent cells were incubated under different conditions and washed twice with TBS prior to lysis. Lysis buffer was added containing 50 mM Tris HCl, 150 mM NaCl, 1% NP-40, 2 mM Na3VO4, 100 mM NaF, 20 mM Na4P2O7 and protease inhibitor cocktail (Roche Molecular Biochemicals). The proteins were resolved on 10% SDS-PAGE and transferred to nitrocellulose membrane (Schleicher & Schuell, Dassel, Germany). The membranes were incubated overnight at 4° C. with antibodies specific for Akt, phospho-Ser-473-Akt (Cell Signaling Technology) and α-tubulin (Sigma), they were washed and then incubated with IRDye800 conjugated anti-mouse and Alexa Fluor 680 goat anti-rabbit IgG secondary antibodies. The bands were visualized using an Odyssey infrared imaging system (Li-Cor Biosciences).

[3] = system: obese mice under high-fat diet; assay: Adiposity by dual X-ray absorptiometry (DXA) in treated obese mice; format: in vivo; details: 2 weeks treatment
Experimental: Mice treated as in FIG. 22 were subjected to dual X-ray absorptiometry (DXA) to determine their relative content of fat and lean tissues (the head and the bone mass is not measured). Determinations were performed one week before starting the treatment (day −7 or D−7), in the middle of the 2 weeks treatment (day 7 or D7, and at the end of the treatment (day 14 or D14). The content of fat is expressed as the percentage of fat relative to the combined fat and lean mass (upper panel). The absolute lean mass is also shown (lower panel). The two panels include data from the assay shown in FIG. 22, as well as the data from our previous assay with Compound A at 15 mg/kg. The percentage of fat and the lean mass of non-obese littermates (always fed with standard diet, SD) is shown in orange for reference.
Mice were fed either with a standard chow diet (Harlan Teklad 2018, 18% calories from fat) or, when indicated, with a high fat diet (Research Diets D12451, 45% of total calories from fat). To measure food intake, mice were housed in metabolic cages during 5 days, and food and water intake, as well as, the output of faeces and urine were measured during the last 4 days. Body composition (fat and lean content) was determined by Dual energy X-ray Absorptiometry (DXA) (Lunar PIXImus Densitometer, GE Medical Systems). […]

[4] = target: PI3K isoform p1103 (Homo sapiens, UniProt P42338); assay: Inhibition of PI3K isoform p110β; format: biochemical
[5] = system: Preadipocytes 3T3-L1 ectopically expressing C/Ebpβ differentiated into brown adipocytes; assay: 3T3-L1/C/Ebpβ differentiated brown adipocytes treated with PI3Ki; format: cell-based; details: 1 μM, 4 h
Experimental: Mouse Embryonic Fibroblasts (MEFs) were isolated at E13.5 as previously described^42. For insulin stimulation, primary MEFs were serum starved (0% FBS) for 12 h, followed by 60 min incubation with PBS and then stimulated with 1 μg/ml of insulin (Sigma) during 30 min. For oncogenic transformation, primary MEFs were retrovirally transduced with pLXSN-neo-E6 and either pWZL-blast-middle-T (kindly provided by Jean Zhao, Dana-Farber Cancer Institute, Boston) or pBABE-puro-EGFRL858R (kindly provided by William Sellers and Matthew Meyerson, Addgene plasmid #11012)^43. After the corresponding drug selection 20,000 cells were plated in 10 cm diameter plates, and 2 weeks later were fixed and stained with 20% Giemsa. Immortalized brown adipocyte cell lines were obtained from the interscapular BAT of 3-5 day-old neonates, treated with and cultured as previously described^33. For immortalization, cultures were retrovirally transduced with Large-T antigen (in vector pBABE-puro, kindly provided by James de Caprio, Dana Farber Cancer Institute, Boston). For the reprogramming of 3T3-L1 adipocytes into brownadipocytes, we followed the method previously reported^50. Briefly, 3T3-L1 cells were retrovirally transduced with pBABE-puro-Cebpb (kindly provided by Roger R. Gomis, IRB, Barcelona). After drug selection with puromycin, cells were grown to confluence and subsequently cultured for 48 h with “differentiation medium” (DMEM 10% FBS, 20 nM insulin, 1 nM T3, 1 μM rosiglitazone, 0.5 mM isobutylmethylxanthine, 125 nM indomethacin, 5 μM dexamethasone). After this, cells were exposed to “maintenance medium” (DMEM 10% FBS, 20 nM insulin, 1 nM T3) for 4 days. […]
Total RNA from tissues or fibroblasts was extracted using TRIZOL (Invitrogen). Reverse transcription was performed using random primers and Ready-To-Go™ You-Prime First-Strand Beads (GE Healthcare). Quantitative real time-PCR was performed using DNA Master Sybr Green I mix (Applied Biosystems) in an ABI PRISM 7700 thermocycler (Applied Biosystem). […]

[6] = alone or in combination with forskolin

T1 sequence (P42336 whole entry): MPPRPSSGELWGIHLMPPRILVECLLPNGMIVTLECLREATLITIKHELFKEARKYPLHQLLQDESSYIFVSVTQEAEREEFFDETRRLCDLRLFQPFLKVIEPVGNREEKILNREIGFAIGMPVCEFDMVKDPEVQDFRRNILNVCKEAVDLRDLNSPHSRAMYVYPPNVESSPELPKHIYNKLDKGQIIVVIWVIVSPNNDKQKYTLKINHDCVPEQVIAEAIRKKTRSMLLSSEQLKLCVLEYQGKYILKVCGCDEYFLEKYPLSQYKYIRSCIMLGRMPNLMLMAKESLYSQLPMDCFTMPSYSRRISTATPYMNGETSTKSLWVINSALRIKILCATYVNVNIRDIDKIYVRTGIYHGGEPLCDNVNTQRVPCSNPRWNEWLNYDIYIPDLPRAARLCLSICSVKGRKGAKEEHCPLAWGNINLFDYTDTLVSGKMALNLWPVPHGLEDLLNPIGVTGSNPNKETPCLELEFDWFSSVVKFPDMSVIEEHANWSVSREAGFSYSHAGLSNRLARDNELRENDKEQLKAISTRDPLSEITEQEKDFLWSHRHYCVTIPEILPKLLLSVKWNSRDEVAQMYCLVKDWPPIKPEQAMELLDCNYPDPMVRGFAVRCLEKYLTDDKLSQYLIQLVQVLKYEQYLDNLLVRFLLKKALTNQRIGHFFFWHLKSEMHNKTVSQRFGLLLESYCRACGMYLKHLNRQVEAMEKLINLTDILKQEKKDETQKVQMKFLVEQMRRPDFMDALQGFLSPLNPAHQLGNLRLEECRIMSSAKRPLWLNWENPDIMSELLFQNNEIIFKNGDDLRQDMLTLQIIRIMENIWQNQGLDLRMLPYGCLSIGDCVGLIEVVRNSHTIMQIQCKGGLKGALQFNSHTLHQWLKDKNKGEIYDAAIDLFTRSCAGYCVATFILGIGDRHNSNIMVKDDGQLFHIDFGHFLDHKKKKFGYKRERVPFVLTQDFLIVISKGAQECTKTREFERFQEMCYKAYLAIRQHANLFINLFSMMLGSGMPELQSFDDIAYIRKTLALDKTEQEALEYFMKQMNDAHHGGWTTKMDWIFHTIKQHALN
T1 sequence (P27986 whole entry partner): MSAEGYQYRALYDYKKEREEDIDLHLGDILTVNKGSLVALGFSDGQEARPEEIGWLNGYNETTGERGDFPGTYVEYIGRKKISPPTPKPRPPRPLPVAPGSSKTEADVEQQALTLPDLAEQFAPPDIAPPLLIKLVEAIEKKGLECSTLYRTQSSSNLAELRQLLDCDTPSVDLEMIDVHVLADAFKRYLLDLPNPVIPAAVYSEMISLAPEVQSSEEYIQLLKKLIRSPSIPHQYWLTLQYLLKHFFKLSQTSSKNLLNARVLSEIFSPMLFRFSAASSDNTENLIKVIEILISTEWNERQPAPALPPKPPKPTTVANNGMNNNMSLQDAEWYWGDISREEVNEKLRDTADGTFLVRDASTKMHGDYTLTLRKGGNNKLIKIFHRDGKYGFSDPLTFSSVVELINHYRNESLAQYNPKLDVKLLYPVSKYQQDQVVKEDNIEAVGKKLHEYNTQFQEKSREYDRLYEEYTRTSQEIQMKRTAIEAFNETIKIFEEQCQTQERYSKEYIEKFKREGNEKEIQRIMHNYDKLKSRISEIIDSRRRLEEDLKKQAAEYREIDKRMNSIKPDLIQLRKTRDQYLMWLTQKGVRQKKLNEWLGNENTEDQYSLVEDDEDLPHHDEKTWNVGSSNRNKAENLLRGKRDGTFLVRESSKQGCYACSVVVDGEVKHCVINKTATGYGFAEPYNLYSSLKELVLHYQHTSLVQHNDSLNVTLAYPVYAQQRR
Sequence of PI3K isoform p1103 (P42338 whole entry, canonical isoform): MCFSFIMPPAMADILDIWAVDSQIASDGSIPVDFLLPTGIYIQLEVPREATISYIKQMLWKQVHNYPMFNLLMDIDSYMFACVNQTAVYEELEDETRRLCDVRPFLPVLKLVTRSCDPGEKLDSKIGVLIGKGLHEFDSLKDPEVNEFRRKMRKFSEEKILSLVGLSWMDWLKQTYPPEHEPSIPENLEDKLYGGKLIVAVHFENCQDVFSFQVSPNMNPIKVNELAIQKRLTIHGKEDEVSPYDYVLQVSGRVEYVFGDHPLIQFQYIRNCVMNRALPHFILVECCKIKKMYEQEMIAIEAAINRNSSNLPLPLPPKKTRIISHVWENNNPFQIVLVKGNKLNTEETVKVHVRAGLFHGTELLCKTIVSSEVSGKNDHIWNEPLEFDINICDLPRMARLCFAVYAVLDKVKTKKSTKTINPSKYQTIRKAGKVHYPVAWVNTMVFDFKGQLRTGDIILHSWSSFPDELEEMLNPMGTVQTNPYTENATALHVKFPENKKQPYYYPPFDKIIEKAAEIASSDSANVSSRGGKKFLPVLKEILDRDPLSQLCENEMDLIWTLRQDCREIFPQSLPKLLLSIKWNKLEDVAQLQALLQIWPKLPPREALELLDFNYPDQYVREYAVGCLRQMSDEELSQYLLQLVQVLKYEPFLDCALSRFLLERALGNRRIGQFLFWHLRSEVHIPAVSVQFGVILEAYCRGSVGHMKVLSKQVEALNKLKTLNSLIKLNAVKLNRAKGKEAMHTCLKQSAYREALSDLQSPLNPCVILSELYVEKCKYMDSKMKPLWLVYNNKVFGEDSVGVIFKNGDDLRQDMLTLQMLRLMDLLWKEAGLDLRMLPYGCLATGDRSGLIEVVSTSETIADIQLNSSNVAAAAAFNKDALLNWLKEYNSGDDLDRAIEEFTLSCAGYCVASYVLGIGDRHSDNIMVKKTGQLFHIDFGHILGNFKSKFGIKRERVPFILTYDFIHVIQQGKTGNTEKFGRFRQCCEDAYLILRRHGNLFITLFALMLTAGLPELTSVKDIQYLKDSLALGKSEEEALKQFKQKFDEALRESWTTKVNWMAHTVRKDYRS
Sequence of PI3K isoform p1103 (P27986 whole entry partner, canonical isoform): as the sequence (P27986 whole entry partner) above

IC50 [1]: 2.4 nM
IC50 [2]: 5 nM
Ki [4]: > 100 nM
Structure (SMILES): CS(=O)(=O)N1CCN(Cc2cn3c(Cl)c(-c4cnc(N)nc4)nc(N4CCOCC4)c3n2)CC1 [Compound A]
fat mass (DXA) [3]: loss of fat mass
lean mass (DXA) [3]: not to a loss of lean mass
levels of phospho-Akt [5]: severe decrease
Pgc1α expression [5, 6]: upregulation
Ucp1 expression [5, 6]: upregulation
